These compounds were tested on Wnt1-tdTomato- MEFs (assay: Conversion of MEFs into ciNCCs with M6 medium (Wnt1-tdTomato lineage tracing)). Conditions: added to Chir99021, SB431542 and forskolin (FIG. 8C).
Format: cell-based, mouse
Procedure: The basal medium contained knockout DMEM (Gibco), 10% KSR (Gibco), 10% FBS (Gibco), 1% NEAA (Gibco), and 0.1 mM 2-mercaptoethanol (Gibco) supplemented with the small molecules CHIR99021 (3 μM), SB431542 (5 μM), Forskolin (10 μM), VPA ([…]), EPZ004777 (5 μM), and 5-Aza-dC (0.5 μM). The medium was shaken for 30 min to ensure that all components were fully dissolved.
The MEFs were plated at 5×10^4 cells per well on six-well tissue culture plates in fibroblast medium. The culture plates were precoated with fibronectin or laminin for more than 2 hours. After overnight culture, the medium was exchanged with M6 chemical medium, which was refreshed every 2 days. NCC-like cells appeared and increased at days 3 to 5. After 7 to 10 days of induction, FACS was performed to collect Wnt1^+ cells.
For corneal endothelium is derived from NCCs, a two-step method for reprogramming mouse fibroblasts into CEC-like cells using small molecules was designed, in which the first step was to guide mouse embryonic fibroblasts (MEFs) to be chemically reprogrammed into ciNCCs. To identify small molecules with the potential to convert fibroblasts into ciNCCs, we used a lineage tracing strategy to trace the conversion process and excluded any NCCs or progenitor cells from the starting MEFs (FIGS. 8A and 15A). Wnt1-Cre transgenic mice have been validated as a lineage-tracing reporter model for NCC development. In Wnt1-Cre/ROSA26tdTomato mice, tdTomato protein was faithfully expressed in NCCs. MEFs were thus isolated from Wnt1-Cre/ROSA26tdTomato mice at embryonic day 13.5 (E13.5). Because the NCC population was marked with tdTomato, we performed fluorescence-activated cell sorting (FACS) to collect the tdTomato^− population to exclude any NCCs or progenitors (the purified cells are hereinafter referred to as Wnt1-tdTomato-MEFs; FIG. 15B). We confirmed that the Wnt1-tdTomato^− MEFs were also negative for other NCC markers, including Sox10, P75, Pax3, HNK1, and AP2α (FIGS. 15C and 15D). Further, these Wnt1-tdTomato^− MEFs were negative for typical NSC markers, including Sox2, Pax6 and Nestin (data not shown). […]

Structure (SMILES) | effect of individual chemical on induction of Wnt1-tdTomato+ cells
Nc1ncn([C@H]2C[C@H](O)[C@@H](CO)O2)c(=O)n1 [5-Aza-dC] | further promoted induction of Wnt1-tdTomato^+ cells
CC(C)N(CCCNC(=O)Nc1ccc(C(C)(C)C)cc1)C[C@H]1O[C@@H](n2ccc3c(N)ncnc32)[C@H](O)[C@@H]1O [EPZ004777] | further promoted induction of Wnt1-tdTomato^+ cells
CCCC(CCC)C(=O)O [VPA, Valproic acid] | further promoted induction of Wnt1-tdTomato^+ cells

— US20230416676A1, “Method for Reprogramming Cell” (Celpaten Consulting Partnership (Limited Partnership), priority 2020, published 2023)
